Results published in PubChem BioAssay AID1963966 (Molecular Pharmacology Branch, DTP, NCI, 2024).
Several values for one entry are separate records, joined by “and”; a condition that tells them apart may be missing. Equal entries are not always repeated.

Test system: 935938-334-R-J1-PDC spheroids with HUVEC/MSC, viability
Test: Anticancer human tumor 935938-334-R-J1-PDC patient-derived small intestine adenocarcinoma cell line growth inhibition [PI3K]
Settings: for viability, T/C: stronger effect = lower value
Summary of the method: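 Tumor cells grown as multi-cell spheroids with HUVEC endothelial cells and MSC fibroblast-like stroma were treated with targeted agents combined with inavolisib, alpelisib, duvelisib or copanlisib. Doses fell in half-log steps from near clinical Cmax, else from 10 microM. Viability was measured.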

[1] = curve of first compound, second compound 0.0316 µM
[2] = curve of first compound, second compound 0.1 µM
[3] = curve of first compound, second compound 0.316 µM
[4] = curve of first compound, second compound 1 µM
[5] = second compound 0.0316 µM, first compound 0.0316 µM
[6] = second compound 0.0316 µM, first compound 0.1 µM
[7] = second compound 0.0316 µM, first compound 0.316 µM
[8] = second compound 0.0316 µM, first compound 1 µM
[9] = second compound 0.0316 µM, first compound 3.16 µM
[10] = second compound 0.0316 µM, first compound 10 µM
[11] = second compound 0.1 µM, first compound 0.0316 µM
[12] = second compound 0.1 µM, first compound 0.1 µM
[13] = second compound 0.1 µM, first compound 0.316 µM
[14] = second compound 0.1 µM, first compound 1 µM
[15] = second compound 0.1 µM, first compound 3.16 µM
[16] = second compound 0.1 µM, first compound 10 µM
[17] = second compound 0.316 µM, first compound 0.0316 µM
[18] = second compound 0.316 µM, first compound 0.1 µM
[19] = second compound 0.316 µM, first compound 0.316 µM
[20] = second compound 0.316 µM, first compound 1 µM
[21] = second compound 0.316 µM, first compound 3.16 µM
[22] = second compound 0.316 µM, first compound 10 µM
[23] = second compound 1 µM, first compound 0.0316 µM
[24] = second compound 1 µM, first compound 0.1 µM
[25] = second compound 1 µM, first compound 0.316 µM
[26] = second compound 1 µM, first compound 1 µM
[27] = second compound 1 µM, first compound 3.16 µM
[28] = second compound 1 µM, first compound 10 µM
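Note: compound exposure lasted seven days before viability was read.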
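Throughout, for viability, T/C: percent of vehicle DMSO treated spheroid viability so 100% = untreated.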

## CC(Cn1ccc(-c2ccc(C#N)c(Cl)c2)n1)NC(=O)c1cc(C(C)O)[nH]n1 (stereo not given) + CC(Nc1ccc2c(c1)OCCn1cc(N3C(=O)OCC3C(F)F)nc1-2)C(N)=O
Curve of first compound, second compound 0.00316 µM
  IC50: > 10000 nM
Curve of first compound, second compound 0.01 µM
  IC50: > 10000 nM
[1]
  IC50: > 10000 nM
[2]
  IC50: 8810 nM
[3]
  IC50: 7050 nM
[4]
  IC50: 4180 nM
Second compound 0.00316 µM, first compound 0.0316 µM
  viability, T/C: 66.3%
Second compound 0.00316 µM, first compound 0.1 µM
  viability, T/C: 106%
Second compound 0.00316 µM, first compound 0.316 µM
  viability, T/C: 91.7%
Second compound 0.00316 µM, first compound 1 µM
  viability, T/C: 82.5%
Second compound 0.00316 µM, first compound 3.16 µM
  viability, T/C: 105%
Second compound 0.00316 µM, first compound 10 µM
  viability, T/C: 53.2%
Second compound 0.01 µM, first compound 0.0316 µM
  viability, T/C: 89%
Second compound 0.01 µM, first compound 0.1 µM
  viability, T/C: 72.4%
Second compound 0.01 µM, first compound 0.316 µM
  viability, T/C: 97.3%
Second compound 0.01 µM, first compound 1 µM
  viability, T/C: 119%
Second compound 0.01 µM, first compound 3.16 µM
  viability, T/C: 96.7%
Second compound 0.01 µM, first compound 10 µM
  viability, T/C: 56.6%
[5]
  viability, T/C: 78.5%
[6]
  viability, T/C: 89.6%
[7]
  viability, T/C: 96.6%
[8]
  viability, T/C: 94.1%
[9]
  viability, T/C: 90.5%
[10]
  viability, T/C: 59.9%
[11]
  viability, T/C: 61.6%
[12]
  viability, T/C: 60.9%
[13]
  viability, T/C: 83.8%
[14]
  viability, T/C: 105%
[15]
  viability, T/C: 84.9%
[16]
  viability, T/C: 46.4%
[17]
  viability, T/C: 96.7%
[18]
  viability, T/C: 81.7%
[19]
  viability, T/C: 68.2%
[20]
  viability, T/C: 82.4%
[21]
  viability, T/C: 75.3%
[22]
  viability, T/C: 39.2%
[23]
  viability, T/C: 64.9%
[24]
  viability, T/C: 43%
[25]
  viability, T/C: 83.7%
[26]
  viability, T/C: 75.5%
[27]
  viability, T/C: 49.6%
[28]
  viability, T/C: 29%

## Cn1nccc1Nc1nccc(-c2ccn(C(CO)c3ccc(Cl)c(F)c3)c(=O)c2)n1 (stereo not given) + Cc1nc(NC(=O)N2CCCC2C(N)=O)sc1-c1ccnc(C(C)(C)C(F)(F)F)c1
[1]
  IC50: 805 nM
[2]
  IC50: 973 nM
[3]
  IC50: 315 nM
[4]
  IC50: 211 nM
Curve of first compound, second compound 3.16 µM
  IC50: 46.8 nM
Curve of first compound, second compound 10 µM
  IC50: < 31.6 nM
[5]
  viability, T/C: 92.1%
[6]
  viability, T/C: 80.5%
[7]
  viability, T/C: 61%
[8]
  viability, T/C: 48.5%
[9]
  viability, T/C: 36.2%
[10]
  viability, T/C: 31.6%
[11]
  viability, T/C: 100%
[12]
  viability, T/C: 73.5%
[13]
  viability, T/C: 62%
[14]
  viability, T/C: 53.4%
[15]
  viability, T/C: 38.6%
[16]
  viability, T/C: 25.1%
[17]
  viability, T/C: 94.1%
[18]
  viability, T/C: 71%
[19]
  viability, T/C: 48.2%
[20]
  viability, T/C: 39.3%
[21]
  viability, T/C: 25%
[22]
  viability, T/C: 25.6%
[23]
  viability, T/C: 62.2%
[24]
  viability, T/C: 75.7%
[25]
  viability, T/C: 39.7%
[26]
  viability, T/C: 26%
[27]
  viability, T/C: 25.8%
[28]
  viability, T/C: 19.2%
Second compound 3.16 µM, first compound 0.0316 µM
  viability, T/C: 50.6%
Second compound 3.16 µM, first compound 0.1 µM
  viability, T/C: 51.3%
Second compound 3.16 µM, first compound 0.316 µM
  viability, T/C: 33.1%
Second compound 3.16 µM, first compound 1 µM
  viability, T/C: 37.4%
Second compound 3.16 µM, first compound 3.16 µM
  viability, T/C: 20.8%
Second compound 3.16 µM, first compound 10 µM
  viability, T/C: 18.7%
Second compound 10 µM, first compound 0.0316 µM
  viability, T/C: 43.9%
Second compound 10 µM, first compound 0.1 µM
  viability, T/C: 48%
Second compound 10 µM, first compound 0.316 µM
  viability, T/C: 28.6%
Second compound 10 µM, first compound 1 µM
  viability, T/C: 22.2%
Second compound 10 µM, first compound 3.16 µM
  viability, T/C: 20.8%
Second compound 10 µM, first compound 10 µM
  viability, T/C: 19.9%

## Cn1ncnc1[C@H]1c2n[nH]c(=O)c3cc(F)cc(c23)N[C@@H]1c1ccc(F)cc1
Compound 0.000316 µM
  viability, T/C: 91.7% [middle of 4 runs]
Compound 0.001 µM
  viability, T/C: 113% and 106% (2×) and 109%
Compound 0.01 µM
  viability, T/C: 101% [middle of 4 runs]
Compound 0.0316 µM
  viability, T/C: 94.7% [middle of 4 runs]
Compound 0.1 µM
  viability, T/C: 97.3% [middle of 4 runs]
Curve of compound
  IC50: > 100 nM
